Experimental data taken from US9572785B2, “DP2 antagonist and uses thereof” (Brickell Biotech, Inc., priority 2009, dated 2017).
Values after ≈ are worked out from the molar mass of the structure shown. Read-outs that look alike come from different tables or passages of the source.

Key:
[1] = target: T1, guinea pig DP2 receptor (Cavia porcellus, UniProt H0W1T0); assay: DP2 radioligand membrane binding assay, guinea pig
T1 sequence (H0W1T0 1-391): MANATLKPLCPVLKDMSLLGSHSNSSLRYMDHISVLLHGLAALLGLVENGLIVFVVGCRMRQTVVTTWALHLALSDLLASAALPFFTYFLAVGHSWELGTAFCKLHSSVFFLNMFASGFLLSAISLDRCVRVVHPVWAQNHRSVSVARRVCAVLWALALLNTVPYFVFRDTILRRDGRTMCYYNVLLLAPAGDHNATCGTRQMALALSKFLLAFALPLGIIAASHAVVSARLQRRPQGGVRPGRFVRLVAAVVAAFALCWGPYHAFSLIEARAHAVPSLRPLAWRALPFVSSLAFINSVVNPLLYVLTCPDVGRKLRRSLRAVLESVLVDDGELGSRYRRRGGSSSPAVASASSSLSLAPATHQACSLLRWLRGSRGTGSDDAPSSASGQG
Protocol: (§1) HEK293 cells stably expressing recombinant human DP2 are resuspended in 10 mM Hepes, 7.4 containing 1 mM DTT, lysed and centrifuged at 75,000×g to pellet the membranes. The membranes are resuspended in 10 mM Hepes, 7.4 containing 1 mM DTT and 10% glycerol to approximately 5 mg protein/ml. […] The reactions are terminated by rapid filtration through Whatman GF/C glass fibre filter plates. […] After harvesting, the filter plates are washed 3 times with 1 ml cold Wash Buffer then dried. Scintillant is then added to the plates and the radioactivity retained on the filters is determined on a Packard TopCount (Perkin Elmer). Specific binding is determined as total radioactive binding minus non-specific binding in the presence of 10 μM PGD2. IC50s were determined using GraphPad prism analysis of drug titration curves. Mouse, rat and guinea pig DP2 receptors were also investigated.

[2] = Solubility profiling at various pHs; type: physicochemical; conditions: 0.15 M NaCl (aq), pH-adjusted, 25 °C, thermodynamic from solid
Protocol: Aqueous solubility was determined by suspending sufficient compound in water to give a maximum final concentration of ≧10 mg·ml^−1 of the parent free-form of the compound. The suspension was equilibrated at 25° C. for 24 hours then the pH was measured. The suspension was then filtered through a glass fibre C filter into a 96 well plate. The filtrate was then diluted by an appropriate factor. Quantitation was by HPLC with reference to a standard solution of approximately 0.1 mg·ml^−1 in DMSO. Different volumes of the standard, diluted and undiluted sample solutions were injected. The solubility was calculated using the peak areas determined by integration of the peak found at the same retention time as the principal peak in the standard injection.
The aqueous solubility was determined using the method described in Table 1. The pH was varied by the suspensions being made up in 0.15 M NaCl (aq) and the pH adjusted to the appropriate value with either dilute HCl or NaOH. The suspension was then allowed to equilibrate for two hours followed by checking the pH and readjustment if required, using either HCl or NaOH as appropriate. The suspension was then allowed to equilibrate for 24 hrs.

[3] = target: T2, mouse DP2 receptor (Mus musculus, UniProt Q9Z2J6); assay: DP2 radioligand membrane binding assay, mouse
T2 construct: expressed in transfected cells
T2 sequence (Q9Z2J6 1-382): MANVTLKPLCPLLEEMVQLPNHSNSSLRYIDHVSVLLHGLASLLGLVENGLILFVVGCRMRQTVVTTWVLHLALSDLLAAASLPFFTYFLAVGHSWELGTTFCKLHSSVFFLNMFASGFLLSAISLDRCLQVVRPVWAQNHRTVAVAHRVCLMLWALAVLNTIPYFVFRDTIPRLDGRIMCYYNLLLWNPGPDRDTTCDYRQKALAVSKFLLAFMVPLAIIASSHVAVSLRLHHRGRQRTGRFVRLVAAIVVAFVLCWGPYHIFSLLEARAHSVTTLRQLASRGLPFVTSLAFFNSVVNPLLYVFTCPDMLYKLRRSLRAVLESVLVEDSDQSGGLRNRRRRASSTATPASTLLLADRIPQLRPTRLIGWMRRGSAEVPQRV
Protocol: as §1

Work on `CCN(Cc1cc(C(F)(F)F)ccc1-c1cc(CC(=O)O)ccc1OC)C(=O)NCc1ccccc1` [Compound 1, [2′-(3-benzyl-1-ethyl-ureidomethyl)-6-methoxy-4′-trifluoromethyl-biphenyl-3-yl]-acetic acid] yielded an IC50 ([1]; average IC50, inhibition of radiolabeled PGD2 binding, guinea pig DP2, membrane binding) of 4.9 nM, an IC50 ([1]; guinea pig DP2 receptor, in the presence of 0.2% guinea pig serum albumin, read-out: IC50, radioligand membrane binding) of 22.9 nM and a solubility at 24 h ([2]; pH 5.6, saline or isotonic, Media pH 6, original pH 6.02, final pH 5.60) of 160 µg/mL (≈ 320 µM). For the same molecule, the solubility at 24 h ([2]; saline or isotonic, Media pH 1, original pH 1.15, final pH 1.15) was 6.9 µg/mL (≈ 13.8 µM), the solubility at 24 h ([2]; saline or isotonic, Media pH 2, original pH 2.0, final pH 2.0) was 1.6 µg/mL (≈ 3.2 µM) and the solubility at 24 h ([2]; saline or isotonic, Media pH 3, original pH 3.01, final pH 3.1) was 2.2 µg/mL (≈ 4.4 µM). It also gave a solubility at 24 h ([2]; saline or isotonic, Media pH 4, original pH 3.97, final pH 4.22) of 3.5 µg/mL (≈ 6.99 µM), a solubility at 24 h ([2]; saline or isotonic, Media pH 5, original pH 5.0, final pH 5.07) of 53 µg/mL (≈ 106 µM) and a solubility at 24 h ([2]; saline or isotonic, Media pH 7, original pH 7.03, final pH 6.47) of 590 µg/mL (≈ 1180 µM). The solubility at 24 h ([2]; saline or isotonic, Media pH 8, original pH 8.09, final pH 7.07) was 2200 µg/mL (≈ 4400 µM), the IC50 ([3]; mouse DP2, membrane binding, read-out: average IC50, inhibition of radiolabeled PGD2 binding) was 7.8 nM and the IC50 ([3]; mouse DP2 receptor, in the presence of 0.2% mouse serum albumin, read-out: IC50, radioligand membrane binding) was 20.1 nM.
